Assay results as given in EP3040345A1, “Sodium channel subunits of pollinator insects and uses thereof” (Centre National de la Recherche Scientifique (CNRS), priority 2014, dated 2016).
Several values for one entry are separate records, joined by “and”; a condition that tells them apart may be missing. Equal values may be shown once. Entries after “also recorded” stand apart in the source; their conditions may differ.

What was measured:
honeybee Para channel = honeybee Para channel (Apis mellifera, UniProt C9D7C5); assay: Two-microelectrode voltage-clamp of Xenopus oocytes co-expressing Para channel and TipE; pyrethroid-induced tail currents; format: cell-based; details: for tail current induction: after conditioning pulses (-80mV to -20mV, 100 Hz), Para + TipE; for Hill coefficient: Hill fit of dose-response curve of tail current
Protocol: Xenopus oocytes were handled in accordance with the principles and guidelines of the Université Laval animal protection committee and the Canadian Council on Animal Care. […] They were then treated with 2 mg/ml collagenase (Collagenase type 1A from Clostridium histolyticum, Sigma) in OR2 solution for 1 h. They were then incubated for at least 1 h at 18°C in OR3 solution. Stage IV and V oocytes were microinjected with mRNA corresponding to the Para channel and the selected regulatory subunit (1 µg/µl for Para and 0.3 µg/µl for regulatory subunits, 50 nl/oocyte). The injected oocytes were incubated at 18°C in OR3 solution for at least 12 h before taking recordings.
Macroscopic currents from mRNA-injected oocytes were recorded in Ringer's solution using the two-microelectrode voltage-clamp technique. The membrane potential for the two-microelectrode voltage-clamp technique was controlled using a Warner oocyte clamp (Warner Instrument Corp.). The currents were filtered at 5 kHz (-3 dB; four-pole Bessel filter). The headstage of the Warner amplifier was attached to a plastic pool containing a 3M NaCl solution through a silver chloride wire connected to the bath solution using an agar bridge. The bridge contained 3% agar (w/v), 500 mM NMDG, and 10 mM HEPES (pH 7.4) and was threaded with a thin platinum/iridium wire to lower high-frequency impedance.
The pH was adjusted to 7.6 at 22°C using 1 M NaOH.
The dose-response curves obtained from these calculations were fitted to a Hill curve using the following equation: M = (MMax)/(1 + ((EC50/dose))^h), [formula] where h is the Hill coefficient, Mmax is the maximal fraction of channels affected, EC50 is the half-maximal effective concentration, and dose is the concentration at which the observation was made.
Current decay and tail current kinetics were fitted to the following equation when a single exponential was used: [formula] and to the following equation when double exponential was used: [formula] where y0 is the initial value, A is the weight of the exponential, and τ is the time constant of the exponential.

drosophila Para channel = drosophila Para channel (Drosophila melanogaster, UniProt P35500); details: read-out: EC50 for the drosophila channel; Vais H et al. 2003, ATX-II used to inhibit inactivation; cited from earlier work
[1] = biological target: sodium current of honeybee antennal olfactory receptor neurons; details: Kadala A et al. 2011; cited from earlier work

Sequence of honeybee Para channel (C9D7C5 1-2044): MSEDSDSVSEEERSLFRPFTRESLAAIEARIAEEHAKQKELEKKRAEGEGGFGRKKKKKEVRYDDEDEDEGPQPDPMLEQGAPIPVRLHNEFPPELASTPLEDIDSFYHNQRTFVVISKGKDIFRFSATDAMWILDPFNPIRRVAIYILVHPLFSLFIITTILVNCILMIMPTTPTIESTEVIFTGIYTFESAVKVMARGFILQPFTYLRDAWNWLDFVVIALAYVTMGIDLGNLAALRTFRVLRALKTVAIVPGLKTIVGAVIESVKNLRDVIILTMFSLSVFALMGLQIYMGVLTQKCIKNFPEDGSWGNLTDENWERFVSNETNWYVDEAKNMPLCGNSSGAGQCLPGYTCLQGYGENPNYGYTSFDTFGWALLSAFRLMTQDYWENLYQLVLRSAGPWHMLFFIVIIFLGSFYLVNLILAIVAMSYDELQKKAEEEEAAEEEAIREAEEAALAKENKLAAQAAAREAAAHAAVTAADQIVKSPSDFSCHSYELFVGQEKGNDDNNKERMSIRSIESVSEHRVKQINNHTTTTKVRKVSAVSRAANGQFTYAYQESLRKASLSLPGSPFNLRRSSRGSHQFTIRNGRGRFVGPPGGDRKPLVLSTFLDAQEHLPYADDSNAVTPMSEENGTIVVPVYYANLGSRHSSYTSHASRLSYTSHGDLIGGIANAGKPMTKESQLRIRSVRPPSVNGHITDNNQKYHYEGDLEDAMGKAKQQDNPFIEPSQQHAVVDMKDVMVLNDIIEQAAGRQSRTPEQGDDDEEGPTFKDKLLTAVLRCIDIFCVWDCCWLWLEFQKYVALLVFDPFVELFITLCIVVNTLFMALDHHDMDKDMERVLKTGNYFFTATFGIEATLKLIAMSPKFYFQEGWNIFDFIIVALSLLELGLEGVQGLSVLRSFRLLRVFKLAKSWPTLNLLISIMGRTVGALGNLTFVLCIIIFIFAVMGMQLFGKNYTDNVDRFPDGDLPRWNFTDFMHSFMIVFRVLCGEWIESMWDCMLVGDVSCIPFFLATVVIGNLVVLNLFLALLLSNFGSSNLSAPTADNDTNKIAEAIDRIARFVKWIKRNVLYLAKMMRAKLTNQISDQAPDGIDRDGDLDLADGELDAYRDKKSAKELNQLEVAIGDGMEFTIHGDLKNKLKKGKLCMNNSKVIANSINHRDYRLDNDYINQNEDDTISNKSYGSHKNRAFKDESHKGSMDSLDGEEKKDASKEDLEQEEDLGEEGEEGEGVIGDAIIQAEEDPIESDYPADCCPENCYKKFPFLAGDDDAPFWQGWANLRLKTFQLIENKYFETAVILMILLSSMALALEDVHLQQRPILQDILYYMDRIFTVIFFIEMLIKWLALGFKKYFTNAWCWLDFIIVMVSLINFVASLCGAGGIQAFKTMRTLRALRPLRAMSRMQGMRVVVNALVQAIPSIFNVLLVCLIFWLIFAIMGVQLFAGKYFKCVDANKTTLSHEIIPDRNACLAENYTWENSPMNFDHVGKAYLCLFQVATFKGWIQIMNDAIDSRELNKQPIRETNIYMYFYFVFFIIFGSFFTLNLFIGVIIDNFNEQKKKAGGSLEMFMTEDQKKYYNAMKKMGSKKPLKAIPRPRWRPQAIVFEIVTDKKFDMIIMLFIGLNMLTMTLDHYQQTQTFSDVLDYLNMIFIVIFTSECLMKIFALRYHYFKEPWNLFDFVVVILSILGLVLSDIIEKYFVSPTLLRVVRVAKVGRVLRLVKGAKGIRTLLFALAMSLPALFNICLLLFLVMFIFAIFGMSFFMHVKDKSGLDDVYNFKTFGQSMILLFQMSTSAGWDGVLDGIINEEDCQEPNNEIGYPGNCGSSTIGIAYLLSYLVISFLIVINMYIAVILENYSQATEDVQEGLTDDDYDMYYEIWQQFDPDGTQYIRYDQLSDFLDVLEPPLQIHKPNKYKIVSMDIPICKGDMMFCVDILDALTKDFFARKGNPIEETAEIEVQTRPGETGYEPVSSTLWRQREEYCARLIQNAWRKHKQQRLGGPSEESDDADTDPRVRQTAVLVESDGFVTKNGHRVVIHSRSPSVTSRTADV
Sequence of drosophila Para channel (P35500 whole entry): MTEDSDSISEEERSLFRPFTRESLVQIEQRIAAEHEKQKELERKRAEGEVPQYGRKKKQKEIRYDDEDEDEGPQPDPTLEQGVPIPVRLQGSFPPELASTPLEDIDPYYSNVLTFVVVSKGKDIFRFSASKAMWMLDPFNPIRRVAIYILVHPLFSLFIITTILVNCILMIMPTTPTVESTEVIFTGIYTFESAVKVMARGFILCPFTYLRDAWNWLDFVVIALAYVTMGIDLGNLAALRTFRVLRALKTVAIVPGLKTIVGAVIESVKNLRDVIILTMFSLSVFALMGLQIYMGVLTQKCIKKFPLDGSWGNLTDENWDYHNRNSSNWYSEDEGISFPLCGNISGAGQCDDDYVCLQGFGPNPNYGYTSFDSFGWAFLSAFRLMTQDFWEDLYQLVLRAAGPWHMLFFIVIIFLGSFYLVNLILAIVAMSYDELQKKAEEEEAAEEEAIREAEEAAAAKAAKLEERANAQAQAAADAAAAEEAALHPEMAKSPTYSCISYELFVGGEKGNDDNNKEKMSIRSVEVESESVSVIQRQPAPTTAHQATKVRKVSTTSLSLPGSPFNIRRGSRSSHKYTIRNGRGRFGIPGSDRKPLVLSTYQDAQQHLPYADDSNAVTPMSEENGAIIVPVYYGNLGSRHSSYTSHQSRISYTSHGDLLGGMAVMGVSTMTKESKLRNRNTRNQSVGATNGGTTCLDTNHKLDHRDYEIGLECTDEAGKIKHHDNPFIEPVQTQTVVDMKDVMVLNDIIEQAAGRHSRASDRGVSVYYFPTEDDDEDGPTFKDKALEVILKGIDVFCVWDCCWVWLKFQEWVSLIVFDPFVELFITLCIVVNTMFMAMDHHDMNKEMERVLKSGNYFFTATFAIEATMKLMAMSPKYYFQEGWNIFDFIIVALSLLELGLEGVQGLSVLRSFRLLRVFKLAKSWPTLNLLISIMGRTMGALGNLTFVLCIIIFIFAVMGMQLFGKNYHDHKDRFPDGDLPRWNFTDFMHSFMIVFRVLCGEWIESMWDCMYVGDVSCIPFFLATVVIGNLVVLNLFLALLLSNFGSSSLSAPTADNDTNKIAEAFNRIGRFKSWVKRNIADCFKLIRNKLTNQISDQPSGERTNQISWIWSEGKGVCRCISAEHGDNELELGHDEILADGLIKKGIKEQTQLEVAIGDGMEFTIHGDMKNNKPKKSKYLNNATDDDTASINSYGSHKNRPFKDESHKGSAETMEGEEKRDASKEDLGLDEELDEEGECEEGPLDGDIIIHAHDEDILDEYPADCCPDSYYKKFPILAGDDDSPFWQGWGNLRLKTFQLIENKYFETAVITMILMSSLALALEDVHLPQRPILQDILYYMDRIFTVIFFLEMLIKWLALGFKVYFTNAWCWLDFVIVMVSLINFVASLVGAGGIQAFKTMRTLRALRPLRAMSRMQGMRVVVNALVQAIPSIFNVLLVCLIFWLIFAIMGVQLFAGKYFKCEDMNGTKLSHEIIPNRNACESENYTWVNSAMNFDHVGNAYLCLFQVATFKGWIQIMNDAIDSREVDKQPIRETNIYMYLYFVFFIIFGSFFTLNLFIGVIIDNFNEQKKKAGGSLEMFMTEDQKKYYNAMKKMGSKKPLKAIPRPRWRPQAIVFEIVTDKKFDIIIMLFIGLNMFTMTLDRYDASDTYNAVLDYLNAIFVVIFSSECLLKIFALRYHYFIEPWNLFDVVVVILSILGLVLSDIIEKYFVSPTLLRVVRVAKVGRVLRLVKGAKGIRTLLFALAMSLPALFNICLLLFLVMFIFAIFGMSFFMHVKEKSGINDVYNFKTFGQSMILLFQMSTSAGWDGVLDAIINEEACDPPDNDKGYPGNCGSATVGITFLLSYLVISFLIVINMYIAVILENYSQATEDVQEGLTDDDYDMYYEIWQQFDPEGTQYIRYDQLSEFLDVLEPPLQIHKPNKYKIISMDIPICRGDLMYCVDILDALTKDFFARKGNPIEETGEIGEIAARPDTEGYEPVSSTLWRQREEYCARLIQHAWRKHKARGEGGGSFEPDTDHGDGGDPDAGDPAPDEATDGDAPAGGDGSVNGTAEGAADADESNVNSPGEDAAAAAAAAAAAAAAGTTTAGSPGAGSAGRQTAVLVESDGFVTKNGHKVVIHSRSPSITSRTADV

Compound | tail current induction (honeybee Para channel; 10 µM) | Hill coefficient (honeybee Para channel) | relative weight of the slow component of tail current deactivation (honeybee Para channel; double exponential fit) | time constant of tail current deactivation, first exponential (honeybee Para channel; double exponential fit) | time constant of tail current deactivation, second exponential (honeybee Para channel; double exponential fit) | EC50 (honeybee Para channel; fraction of channels bound vs dose, Hill fit, 1700 conditioning pulses, Para + TipE in oocytes, read-out: half maximal effective concentration (EC50)) | EC50 (drosophila Para channel) | EC50 [1] | shifts in activation, inactivation, or recovery from inactivation (honeybee Para channel; 10 µM in extracellular medium, Para co-expressed with TipE) | number of conditioning pulses at which the maximal effect is reached (honeybee Para channel; 10 µM, tail current amplitude) | time constant of deactivation of tail currents (single exponential) (honeybee Para channel; single exponential fit) | inversion (reversal potential) of tail current (honeybee Para channel; tail current after 200 conditioning pulses, linear voltage-dependence)
CC(C)C(C(=O)OC(C#N)c1cccc(Oc2ccccc2)c1)c1ccc(Cl)cc1 (centres unmarked) [fenvalerate] | induced a tail current | 1.1817 and 1.18 | 85.4% | 9.9 s | 31.8 s | 289 nM and ~290 nM | – | – | – | – | – | –
CC1(C)C(C=C(Cl)Cl)C1C(=O)OCc1cccc(Oc2ccccc2)c1 (centres unmarked) [permethrin] | induced tail currents | 0.8263 and 0.83 | – | – | – | – | 12 nM | 3500 nM | no significant effect; also recorded: did not induce statistically significant shifts | 200 pulses | 0.93 s | approximately +10 mV
